Experimental data from publication PMC4216111, “The Bile Acid-Sensitive Ion Channel (BASIC) Is Activated by Alterations of Its Membrane Environment” (PLoS ONE, 2014).
Where two headings read alike, the source gives them in different places. Blank lines part the entries; values can stand above or below the compound they belong to.

What was measured:
[1] = Solubility in bath solution; type: physicochemical; conditions: read-out: solubility limit
[2] = test system: mouse BASIC; assay: Two-electrode voltage clamp, oocytes expressing mouse BASIC
[3] = target: T1, rat BASIC (Rattus norvegicus, UniProt Q9R0W5); assay: Two-electrode voltage clamp, Xenopus laevis oocytes expressing rat BASIC; conditions: for IC50: read-out: IC50 of BASIC inhibition
T1 sequence (Q9R0W5 1-495): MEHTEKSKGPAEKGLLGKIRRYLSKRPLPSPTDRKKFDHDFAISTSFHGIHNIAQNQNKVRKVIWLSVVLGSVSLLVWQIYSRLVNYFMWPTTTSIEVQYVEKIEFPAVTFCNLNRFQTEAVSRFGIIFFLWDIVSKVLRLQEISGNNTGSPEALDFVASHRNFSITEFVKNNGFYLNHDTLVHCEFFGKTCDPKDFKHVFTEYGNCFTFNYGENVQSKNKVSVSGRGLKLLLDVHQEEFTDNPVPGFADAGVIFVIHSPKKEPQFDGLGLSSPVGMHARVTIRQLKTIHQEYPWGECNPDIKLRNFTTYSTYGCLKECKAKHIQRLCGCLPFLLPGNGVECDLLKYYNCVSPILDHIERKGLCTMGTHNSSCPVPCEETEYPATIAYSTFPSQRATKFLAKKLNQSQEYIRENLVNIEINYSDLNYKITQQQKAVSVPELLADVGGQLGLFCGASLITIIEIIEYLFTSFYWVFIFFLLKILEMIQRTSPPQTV

[4] = target: T1, rat BASIC; set-up: expressed in transfected cells; host or cells: Xenopus laevis oocytes injected with cRNA; conditions: cited from earlier work
[5] = test system: human BASIC; set-up: method as in PMID 21828194; conditions: cited from earlier work
[6] = test system: T2, mouse BASIC; set-up: method as in PMID 21828194; conditions: cited from earlier work
T2 construct: expressed in transfected cells; host or cells: Xenopus laevis oocytes injected with cRNA

[7] = test system: non-injected oocytes; assay: Two-electrode voltage clamp, non-injected control oocytes
[8] = test system: Hydra Na^+ Channel (HyNaC) 2/3/5; assay: Two-electrode voltage clamp, oocytes expressing HyNaC2/3/5; type: cell-based; conditions: 400 µM SDS, 500 µM NL, 100 µM Triton-X 100, 5 µM RFamide I
[9] = test system: rat ASIC1a; assay: Two-electrode voltage clamp, oocytes expressing rat ASIC1a; conditions: 400 µM SDS, 500 µM NL, 100 µM Triton-X 100, 2 mM UDCA
[10] = test system: rASIC1a-rBASIC-loop 1, - 2 and -3; assay: Two-electrode voltage clamp, chimeras rASIC1a-rBASIC-loop 1, -2 and -3; type: cell-based, rat; conditions: 2 mM UDCA
Text: (§1) Clones for rat BASIC (accession No. NM_022227), mouse BASIC (accession No. NM_021370), rat ASIC1a (accession No. NM_024154) and HyNaC 2, 3 and 5 (accession No. AM393878, AM393880 and FN257513) were described previously, [15], [16]. Chimeras between BASIC and ASIC1a were generated by overlap PCR and PCR fragments were cloned into the expression vector pRSSP6009 [15] using the In-Fusion cloning kit (Invitrogen, Germany). Sequences were confirmed by sequencing. Plasmid DNAs were linearized using the restriction endonucleases MluI or NaeI. cRNA was synthesized from linearized plasmids using the SP6 mMessage mMachine kit (Ambion, USA).
(§2) Chemicals were purchased from Sigma or Merck.

[11] = test system: rASIC1a-rBASIC-TM1, -TM2 or -TM; assay: Two-electrode voltage clamp, chimeras rASIC1a-rBASIC-TM1, -TM2 or -TM; type: cell-based, rat; conditions: 2 mM UDCA
Text: as §1, §2

[12] = test system: rBASIC-rASIC1a-loop; assay: Two-electrode voltage clamp, chimera rBASIC-rASIC1a-loop; type: cell-based, rat; conditions: 2 mM UDCA
Text: as §1, §2

[13] = test system: rASIC1a rBASIC loop 1–2, rASIC1a rBASIC loop 2–3; assay: Two-electrode voltage clamp, chimeras rASIC1a rBASIC loop 1–2 and loop 2–3; type: cell-based, rat; conditions: 2 mM UDCA
Text: as §1, §2

[14] = test system: rASIC1a-rBASIC-loop; assay: Two-electrode voltage clamp, chimera rASIC1a-rBASIC-loop; type: cell-based, rat; conditions: 2 mM UDCA
Text: as §1, §2

[15] = 2 mM UDCA, 500 µM CPZ, 10 mM TNP, 100 µM Triton-X 100, 500 µM NL, 400 µM SDS, n = 8
[16] = 400 µM SDS, 500 µM N-lauroylsarcosine, 100 µM Triton-X 100, n = 7
[17] = 400 µM SDS, 500 µM NL, 100 µM Triton-X 100, n = 8

- solubility [1]: ≤ 500 µM
- decrease of the response of BASIC to 2 mM UDCA ([3]; 0.5 mM CPZ co-applied with 2 mM UDCA): 2.0 fold
Compound: CN(C)CCCN1c2ccccc2Sc2ccc(Cl)cc21 [CPZ, chlorpromazine]
- activity of mouse BASIC, normalized to the amiloride-sensitive current [2, 15]: 0.95 fold

Compound: O=C(O)c1ccccc1Nc1cccc(C(F)(F)F)c1 [FFA, flufenamic acid]
- activation of rat BASIC [4]: activated
- activation of human BASIC [5]: activated
- effect on mouse BASIC [6]: not affected

- effect on UDCA-dependent activation of BASIC ([3]; 100 µM Gd^3+ co-applied with 2 mM UDCA): completely abolished
- IC50 ([3]; in the absence of UDCA (resting state), n = 8): 102 ± 34 µM
- IC50 ([3]; in the presence of 2 mM UDCA, n = 8): 19 ± 7 µM
Compound: [Gd+3] [Gd^3+, gadolinium]
- response of non-injected control oocytes [7]: did not respond

- increase of the low-activity (DIMI-sensitive) BASIC currents [3, 17]: 3 fold
- effect on currents when applied in the presence of diminazene ([3]; co-applied with diminazene): did not increase currents
Compound: CCCCCCCCCCCC(=O)N(C)CC(=O)O [NL, N-lauroylsarcosine]
- activation of HyNaC 2/3/5 [8]: not activated
- activation of ASIC1a [9]: not activated
- current in un-injected oocytes [7, 16]: 35±0.8 nA
- activity of mouse BASIC, normalized to the amiloride-sensitive current [2, 15]: 1.5 fold

- increase of the low-activity (DIMI-sensitive) BASIC currents [3, 17]: 2 fold
- effect on currents when applied in the presence of diminazene ([3]; co-applied with diminazene): did not increase currents
Compound: CCCCCCCCCCCCOS(=O)(=O)[O-].[Na+] [SDS]
- activation of HyNaC 2/3/5 [8]: not activated
- activation of ASIC1a [9]: not activated
- current in un-injected oocytes [7, 16]: 34±0.6 nA
- activity of mouse BASIC, normalized to the amiloride-sensitive current [2, 15]: 1.5 fold

- EC50 [3]: 2.7 ± 0.06 mM
- activation of BASIC ([3]; 2 mM UDCA): strongly activated BASIC
- maximum current at 5 mM UDCA ([3]; 5 mM UDCA, n = 10): 23.8±2.4 µA
Compound: C[C@H](CCC(=O)NCCS(=O)(=O)O)[C@H]1CC[C@H]2[C@@H]3[C@@H](O)C[C@@H]4C[C@H](O)CC[C@]4(C)[C@H]3CC[C@]12C [UDCA, tauroursodeoxycholic acid]
- response to UDCA of chimeras rASIC1a-rBASIC-loop 1, -2 and -3 [10]: responded weakly to UDCA
- activation by UDCA of chimeras rASIC1a-rBASIC-TM1, -TM2, -TM [11]: activated by UDCA
- activation of ASIC1a [9]: not activate ASIC1a
- response to UDCA of chimera rBASIC-rASIC1a-loop compared to removal of divalent cations [12]: extremely weak
- activation by UDCA of chimeras loop 1–2 and loop 2–3 [13]: weakly activated by UDCA
- UDCA sensitivity of chimera rASIC1a-rBASIC-loop [14]: weakly sensitive to UDCA
- activity of mouse BASIC, normalized to the amiloride-sensitive current [2, 15]: 1.3 fold

Compound: CC(C)CCC[C@@H](C)[C@H]1CC[C@H]2[C@@H]3CC=C4C[C@@H](O)CC[C@]4(C)[C@H]3CC[C@]12C [cholesterol]
- effect of cholesterol application on rBASIC dependent current ([3]; 2 mM MβCD-balanced water-soluble cholesterol, 10 sec): did not affect the rBASIC dependent current

- effect of diminazene on BASIC currents ([3]; 100 µM DIMI alone or together with SDS, NL or Triton-X 100): inhibited BASIC currents
- DIMI-sensitive current in the absence of stimulatory substances ([3]; n = 8): 0.25±0.03 µA
Compound: N=C(N)c1ccc(/N=N/Nc2ccc(C(=N)N)cc2)cc1 [diminazene]

- effect of cholesterol removal on rBASIC activity ([3]; 20 mM MβCD, approximately 2 h, control, −Ca^2+ and 2 mM UDCA): does not influence rBASIC activity
Compound: MβCD

Compound: Triton-X 100
- activation of HyNaC 2/3/5 [8]: not activated
- activation of ASIC1a [9]: not activated
- current in un-injected oocytes [7]: 35±0.8 nA
- activity of mouse BASIC, normalized to the amiloride-sensitive current [2]: 1.2 fold
- effect on currents when applied in the presence of diminazene [3]: inhibited by diminazene
- increase of the low-activity (DIMI-sensitive) BASIC currents [3]: 1.5 fold
